# Reference: patent US4923882A, “Novel amine derivatives, salts thereof and an anti-ulcer agent containing the same” (Toyama Chemical Co., Ltd., priority 1982, dated 1990)
# How the values were obtained:
# gastric acid secretion [1] = assay: Inhibitory effect on gastric acid secretion, perfused stomach preparation of anesthetized rat (histamine stimulated); format: in vivo, Wistar strain rats; details: intravenous; for ED100: Rattus norvegicus, cumulative, histamine 30 μg/kg/min, read-out: Dose for complete inhibition; for Duration: time from complete inhibition until pH of perfusate became 4
# Description: (i) Perfused stomach preparation of anesthetized rat [according to M. N. Ghosh and H. O. Schild: Brit. J. Pharmacol. 13, 54 (1958)]
# Wistar strain rats (male, 200 to 250 g) starved for 18 hours were anesthetized with urethane and then subjected to laparotomy, after which the forestomach region of the stomach of each rat was incised. The whole interior of the stomach was sufficiently washed with physiological saline, and the cut edges were sutured. A silicon tube was inserted into the stomach to a length of about 5 mm from the duodenum side and fixed. Subsequently, the stomach was perfused with physiological saline adjusted to a pH of about 10 with an aqueous sodium hydroxide solution at a constant rate (1 ml/min) through an oral sonde, and the change in pH of the perfusate which had flowed out through the silicone tube was continuously recorded. During the perfusion, histamine (30 μg/kg/min) was continuously injected, as an agent for stimulating gastric acid secretion, through the femoral vein at a rate of 0.3 ml/min. Each drug was intravenously administered when the acid secretion became almost constant (pH 3.3±0.2), and cumulatively administered when the inhibition of acid secretion at each dose reached a plateau.
# The number of experiments was three for each dose.
# gastric acid secretion [2] = assay: Inhibitory effect on gastric acid secretion, pylorus ligation method (histamine); format: in vivo, Wistar strain rats; details: Rattus norvegicus, oral, histamine 25 mg/kg s.c., read-out: Inhibition percentage (gastric acid secretion)
# Description: Five to six Wistar strain rats (male, 190 to 230 g) per group were starved for 35 hours, after which each drug was orally administered, and after 2 hours, the pylorus of each rat was ligated under ether anesthesia. […] After 3 hours, each rat was killed, after which the cardiac portion was ligated, and the stomach was removed. After 1 ml of distilled water was injected into the stomach, the gastric juice was collected by centrifugation and its volume was measured. The acidity of the gastric juice was measured by titrating 1 ml of the gastric juice with a 0.1N aqueous sodium hydroxide solution, taking pH 7.0 as the end-point. Physiological saline was administered to a control group.
# The inhibition percentage of gastric acid secretion was determined from the following equation: [formula]
# [3] = tested on: Stress ulcer induced by water-immersion; assay: Anti-ulcer activity: Stress ulcer induced by water-immersion; format: in vivo, Wistar rats; details: for Inhibition percentage / ED50: oral; for Potency ratio: Cimetidine = 1; for ED50: Rattus norvegicus, 15 h, water-immersion stress ulcer, read-out: ID50 (the source's name)
# Description: (iii) Stress ulcer induced by water-immersion
# An experiment was carried out according to the method of Takagi et al. [K. Takagi et al., Jap.
# Six Wistar rats (male, 230 to 280 g) per group were starved for 24 hours, after which each drug was orally administered. After 30 minutes, the rats were placed in stress cage, immersed in water at 23° C. to the depth of xiphoid, and allowed to stand therein for 15 hours. Thereafter, the stomach of each rat was removed and then fixed with 3% formalin, after which the areas of the ulcers formed were measured under the binocular stereoscopic microscope (10×), and the sum total of the areas was taken as the ulcer index. To a control group was administered 0.5% Tween 80 physiological saline.
# The inhibition percentage was determined from the following equation: [formula]
# Reserpine ulcer = assay: Anti-ulcer activity: Reserpine ulcer; format: in vivo, Wistar strain rats; details: oral; for ED50: Rattus norvegicus, 18 h, reserpine ulcer, read-out: ID50 (the source's name)
# Description: An experiment was carried out according to the method of Adami et al. [E. Adami et al., Arch. int.
# Ten Wistar strain rats (male, 180 to 200 g) per group were starved for 30 hours, after which each drug was orally administered, and after 1 hour, reserpine was injected subcutaneously at a dose of 10 mg/kg. After 18 hours, the stomach was removed and fixed with 3% formalin, and thereafter the lengths of the ulcers formed in the stomach were measured with callipers. The measured values were converted to the scores described below, and the sum total of the scores was taken as the ulcer index.
# That is to say, 1 to 5 pin point ulcers are scored as 1, 6 or more pin point ulcers are scored as 2, ulcers of 1 mm or less in length are scored as 1, ulcers of 1 to 2 mm in length are scored as 2, ulcers of 2 to 4 mm in length are scored as 4, and ulcers of 4 mm or more in length are scored as 8.
# To a control group was administered 0.5% Tween 80 physiological saline. The inhibition percentage was determined from the following equation: [formula]
# Indomethacin ulcer = assay: Anti-ulcer activity: Indomethacin ulcer; format: in vivo, Wistar strain rats; details: for Potency ratio: Cimetidine = 1; for ED50: 5 h, Indomethacin ulcer, read-out: ID50 (the source's name)
# Description: Six Wistar strain rats (male, 200 to 250 g) per group were starved for 24 hours, after which each drug was orally administered, and after 30 minutes, Indomethacin was injected subcutaneously at a dose of 30 mg/kg. After 5 hours, each rat was killed, and the stomach was removed and fixed with 3% formalin, after which the lengths of ulcers formed in the stomach was measured under the binocular stereoscopic microscope (10×), and the sum total of the lengths was taken as the ulcer index. To a control group was administered 0.5% Tween 80 physiological saline. The inhibition percentage was determined from the following equation: [formula]
# [4] = Rattus norvegicus, oral, read-out: Inhibition percentage
SMILES,ED100 (gastric acid secretion [1]) [mg/kg],Duration (gastric acid secretion [1]) [min],inhibition in vivo at 3 mg/kg (gastric acid secretion [2]) [%],inhibition in vivo at 1 mg/kg (gastric acid secretion [2]) [%],other results
"O=[N+]([O-])C=C(NCCCOc1cccc(CN2CCCCC2)c1)NCC(O)c1ccccc1 (stereo not drawn) [compound 11, N-(β-hydroxyphenethyl)-2-nitro-N'-[3-(3-piperidinomethylphenoxy)propyl]-1,1-ethenediamine]",0.05,123,79,–,inhibition in vivo at 10 mg/kg (gastric acid secretion [2]): 81%
"O=[N+]([O-])C=C(NCCCOc1cccc(CN2CCCCC2)c1)NCC(O)c1cccc(O)c1 (stereo not drawn) [compound 13, N-[2-hydroxy-2-(3-hydroxyphenyl)ethyl]-2-nitro-N'-[3-(3-piperidinomethylphenoxy)propyl]-1,1-ethenediamine]",0.1,> 240,–,51,–
"CN(C)Cc1ccc(CSCCNC(=C[N+](=O)[O-])NCC(O)c2ccc(Cl)cc2)o1 (stereo not drawn) [compound 5, N-[2-(4-chlorophenyl)-2-hydroxyethyl]-N'-{2-[[5-(dimethylamino)methyl-2-furyl]methylthio]ethyl}-2-nitro-1,1-ethenediamine]",0.1,192,80,–,–
CN(C)Cc1ccc(CSCCNC(=C[N+](=O)[O-])NCC(O)c2cccs2)o1 (stereo not drawn) [compound 6],0.1,132,67,–,inhibition in vivo at 10 mg/kg (gastric acid secretion [2]): 93%
"O=[N+]([O-])C=C(NCCCOc1cccc(CN2CCCCC2)c1)NCC(O)c1ccc(O)cc1 (stereo not drawn) [compound 12, N-[2-hydroxy-2-(4-hydroxyphenyl)ethyl]-2-nitro-N'-[3-(3-piperidinomethylphenoxy)propyl]-1,1-ethenediamine]",0.15,> 240,87,–,–
"O=[N+]([O-])C=C(NCCCOc1cccc(CN2CCCCC2)c1)NCC(O)c1ccc(Cl)cc1 (stereo not drawn) [compound 16, N-[2-(4-chlorophenyl)-2-hydroxyethyl]-2-nitro-N'-[3-(3-piperidinomethylphenoxy)propyl]-1,1-ethenediamine]",0.1,304,89,–,–
"Cc1cc(CSCCNC(=C[N+](=O)[O-])NCC(O)c2cccc(C(F)(F)F)c2)sc1CN(C)C (stereo not drawn) [compound 33, N-{2-[[5-(dimethylamino)methyl-4-methyl-2-thienyl]methylthio]ethyl}-N'-[2-hydroxy-2-(3-trifluoromethylphenyl)ethyl]-2-nitro-1,1-ethenediamine]",0.3,> 240,–,55,Inhibition percentage ([3]; 1 mg/kg): 32%; Inhibition percentage ([3]; 3 mg/kg): 75%; Potency ratio [3]: 9.8; ED50 [3]: 1.58 mg/kg; Inhibition percentage (Reserpine ulcer; 1 mg/kg): 42%; Inhibition percentage (Reserpine ulcer; 3 mg/kg): 68%; ED50 (Reserpine ulcer): 1.4 mg/kg
"Cc1cccc(C(O)CNC(=C[N+](=O)[O-])NCCSCc2cc(C)c(CN(C)C)s2)c1 (stereo not drawn) [compound 29, N-{2-[[5-(dimethylamino)methyl-4-methyl-2-thienyl]methylthio]ethyl}-N'-[2-hydroxy-2-(3-methylphenyl)ethyl]-2-nitro-1,1-ethenediamine]",0.3,> 177,–,56,"Potency ratio (Indomethacin ulcer): 31.3; ED50 (Indomethacin ulcer; Rattus norvegicus, oral): 0.88 mg/kg; inhibition in vivo at 0.3 mg/kg (Indomethacin ulcer; Rattus norvegicus, 0.3 mg/kg, oral, read-out: Inhibition percentage): 8%; inhibition in vivo at 1 mg/kg (Indomethacin ulcer; [4]): 57%; Inhibition percentage ([3]; 1 mg/kg): 37%; Inhibition percentage ([3]; 3 mg/kg): 78%; Potency ratio [3]: 11.1; ED50 [3]: 1.4 mg/kg; Inhibition percentage (Reserpine ulcer; 1 mg/kg): 21%; Inhibition percentage (Reserpine ulcer; 3 mg/kg): 41%; ED50 (Reserpine ulcer): 4.7 mg/kg"
"COc1ccc(C(O)CNC(=C[N+](=O)[O-])NCCCOc2cccc(CN3CCCCC3)c2)cc1 (stereo not drawn) [compound 14, N-[2-hydroxy-2-(4-methoxyphenyl)ethyl]-2-nitro-N'-[3-(3-piperidinomethylphenoxy)propyl]-1,1-ethenediamine]",0.15,158,–,61,–
"Cc1cc(CSCCNC(=C[N+](=O)[O-])NCC(O)c2cccc(Br)c2)sc1CN(C)C (stereo not drawn) [compound 32, N-[2-(3-bromophenyl)-2-hydroxyethyl]-N'-{2-[[5-(dimethylamino)methyl-4-methyl-2-thienyl]methylthio]ethyl}-2-nitro-1,1-ethenediamine]",0.3,> 220,–,–,"inhibition in vivo at 1.5 mg/kg (gastric acid secretion [2]; 1.5 mg/kg): 60%; Potency ratio (Indomethacin ulcer): 15.2; ED50 (Indomethacin ulcer; Rattus norvegicus, oral): 1.81 mg/kg; inhibition in vivo at 1 mg/kg (Indomethacin ulcer; [4]): 24%; inhibition in vivo at 3 mg/kg (Indomethacin ulcer; Rattus norvegicus, 3 mg/kg, oral, read-out: Inhibition percentage): 72%; Inhibition percentage (Reserpine ulcer; 1 mg/kg): 38%; Inhibition percentage (Reserpine ulcer; 3 mg/kg): 55%; ED50 (Reserpine ulcer): 2.15 mg/kg"
"Cc1ccsc1C(O)CNC(=C[N+](=O)[O-])NCCSCc1ccc(CN(C)C)o1 (stereo not drawn) [compound 7, N-{2-[[5-(dimethylamino)methyl-2-furyl]methylthio]ethyl}-N'-[2-hydroxy-2-(3-methyl-2-thienyl)ethyl]-2-nitro-1,1-ethenediamine]",0.1,227,88,–,–
"Cc1ccsc1C(O)CNC(=C[N+](=O)[O-])NCCCOc1cccc(CN2CCCCC2)c1 (stereo not drawn) [compound 18, N-[2-hydroxy-2-(3-methyl-2-thienyl)ethyl]-2-nitro-N'-[3-(3-piperidinomethylphenoxy)propyl]-1,1-ethenediamine]",0.3,247,87,–,–
